The target of experiment [1] is T1, PTHrP receptors (Oryctolagus cuniculus, UniProt G1T397).
T1 construct: the chondrocytes cultured for 14 days were homogenized and incubated with ^125I labelled PTHrP for 5 h; endogenous in cells; host or cells: primary rabbit growth-plate chondrocytes, 14-day pellet culture, homogenized
T1 sequence (G1T397 29-589): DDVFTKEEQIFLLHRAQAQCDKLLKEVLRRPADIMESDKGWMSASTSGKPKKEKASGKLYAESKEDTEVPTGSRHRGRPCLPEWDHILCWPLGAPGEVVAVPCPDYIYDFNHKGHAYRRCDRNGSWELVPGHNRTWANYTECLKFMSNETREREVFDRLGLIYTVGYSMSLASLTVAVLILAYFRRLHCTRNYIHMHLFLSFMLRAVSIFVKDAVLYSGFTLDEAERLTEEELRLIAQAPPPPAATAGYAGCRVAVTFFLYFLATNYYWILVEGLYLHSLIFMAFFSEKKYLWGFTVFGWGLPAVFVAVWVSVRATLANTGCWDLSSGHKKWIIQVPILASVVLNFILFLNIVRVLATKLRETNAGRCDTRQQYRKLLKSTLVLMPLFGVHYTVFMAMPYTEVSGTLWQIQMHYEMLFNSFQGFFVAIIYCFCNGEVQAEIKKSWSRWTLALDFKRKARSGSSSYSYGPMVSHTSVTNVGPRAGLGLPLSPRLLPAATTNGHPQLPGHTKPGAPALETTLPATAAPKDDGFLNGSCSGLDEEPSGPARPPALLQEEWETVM
As to the kind of experiment: Binding of 125I labelled PTHrP to receptors in chondrocyte homogenate (DSS crosslinking, SDS gel electrophoresis, autoradiography). Conditions: addition of excess PTHrP; chondrocytes cultured 14 days, homogenized; FIG. 1. On the set-up: species or system rabbit. An excerpt: (§1) In the following Examples, grown chondrocytes were separated from the subchondral bone to bone transition area of rabbits 4 weeks old from birth by the method of Shimomura et al. (Shimomura, Y. et al., Calcif. Tissue Res. 19, 179-187, 1975). The separated chondrocytes were cultivated by the method of Iwamoto et al. (Iwamoto, M. et al. Dev. Biol. 136 500-507, 1989) and the method of Kato et al. (Kato, Y. et al. Endocrinology, 127, 114-118, 1990). Stated specifically, the separated chondrocytes were suspended in an Eagle's minimum essential medium (MEM) to give a concentration of 8×10^4 cells/mL in the presence of 10% fetal bovine serum (FBS) and 50 μg/mL of ascorbic acid and then seeded in 1-mL portions into 15-mL plastic centrifugal tubes (Corning). After 5-min centrifugation (at 1,500 rpm), the cells were cultivated in a CO2 gas incubator having a temperature setting of 37° C. Starting on the 6th day of the cultivation, medium changes were made every other day. The presence of PTHrP receptors in the chondrocytes was verified by SDS gel electrophoresis. Stated specifically, the chondrocytes cultured for 14 days were homogenized and incubated with ^125I labelled PTHrP for 5 h. The PTHrP binding to the receptors was crosslinked with DSS, solubilized with a SDS buffer solution and electrophoresed through a SDS gel. […]

Experiment [2] has as its system grown chondrocytes. The experiment is described as follows: Cartilage matrix proteoglycan synthesis (incorporation of labelled sulfuric acid) in cultured chondrocytes. The format is cell-based, rabbit. To be noted: FIG. 2. Here is the method:
As in Example 1, grown chondrocytes were separated from the subchondral bone to bone transition area of rabbits 4 weeks old from birth by the method of Shimomura et al. (Shimomura, Y. et al., Calcif. Tissue Res. 19, 179-187, 1975). The separated chondrocytes were suspended in an Eagle's minimum essential medium (MEM) containing 10% fetal bovine serum and 50 μg/mL of ascorbic acid and seeded in a 96-well culture plate at a concentration of 5,000 cells in each well. When the cells became confluent, PTHrP was added and, one day later, 1 μCi of […] was added per well, followed by 17-h cultivation. The amount of cartilage matrix produced in the supernatant of the culture solution was measured by the method of Kato et al. (Kato, Y. et al., Endocrinology 122, 1991-1997, 1988). Briefly, the quantity of […] incorporated into proteoglycans was measured.

Experiment [3] concerns chondrocytes. The experiment is described as follows: Growth of chondrocytes cultured in a centrifugal tube (DNA content). To be noted: 10^−7 M added on 8th day, up to 28 days; 10^−10 to 10^−7 M, 21st day; FIG. 3, 4. In kind it is cell-based, rabbit.
From the text: as §1, with “day.” for “day. The presence of PTHrP receptors in the chondrocytes was verified by SDS gel electrophoresis. Stated specifically, the chondrocytes cultured for 14 days were homogenized and incubated with ^125I labelled PTHrP for 5 h. The PTHrP binding to the receptors was crosslinked with DSS, solubilized with a SDS buffer solution and electrophoresed through a SDS gel.”
As in Example 1, chondrocytes were cultured in a centrifugal tube. […] After the cultivation, the cells were solubilized at appropriate intervals and the time-dependent changes in DNA content were measured. In another experiment, PTHrP was added at varying concentrations from 10^−10 to 10^−7 M and the DNA content on the 21st day of the cultivation was measured.

Experiment [4] relates to chondrocytes. The experiment is described as follows: Alkaline phosphatase (ALP) activity of chondrocytes cultured in a centrifugal tube. In kind it is cell-based, rabbit. An excerpt: (§2) In the following Examples, grown chondrocytes were separated from the subchondral bone to bone transition area of rabbits 4 weeks old from birth by the method of Shimomura et al. (Shimomura, Y. et al., Calcif. Tissue Res. 19, 179-187, 1975). The separated chondrocytes were cultivated by the method of Iwamoto et al. (Iwamoto, M. et al. Dev. Biol. 136 500-507, 1989) and the method of Kato et al. (Kato, Y. et al. Endocrinology, 127, 114-118, 1990). Stated specifically, the separated chondrocytes were suspended in an Eagle's minimum essential medium (MEM) to give a concentration of 8×10^4 cells/mL in the presence of 10% fetal bovine serum (FBS) and 50 μg/mL of ascorbic acid and then seeded in 1-mL portions into 15-mL plastic centrifugal tubes (Corning). After 5-min centrifugation (at 1,500 rpm), the cells were cultivated in a CO2 gas incubator having a temperature setting of 37° C. Starting on the 6th day of the cultivation, medium changes were made every other day. The presence of PTHrP receptors in the chondrocytes was verified by SDS gel electrophoresis. Stated specifically, the chondrocytes cultured for 14 days were homogenized and incubated with ^125I labelled PTHrP for 5 h. The PTHrP binding to the receptors was crosslinked with DSS, solubilized with a SDS buffer solution and electrophoresed through a SDS gel. After the electrophoresis, autoradiography was performed in the usual manner. As a control, excess PTHrP, was added to prevent the binding of ^125I labelled PTHrP to the receptors and the unbound PTHrP was electrophoresed by the same procedure and subjected to autoradiography.
As in Example 1, chondrocytes were cultured in a centrifugal tube. On the 8th day of the cultivation, 10^−7 M of PTHrP was added and the cultivation was continued for a period of up to 28 days. On the 21st day of the cultivation, a PTHrP free group was set and compared with the PTHrP treated group. In another experiment, PTHrP was added in varying amounts from […] and the dose-response relationship with the alkaline phosphatase activity (ALP activity) was verified. For the measurement of ALP activity, chondrocyte clusters were homogenized in 0.2% Triton X-100, centrifuged at 12,000 xg for 15 min and the supernatant was assayed by the method of Bessey et al. (Bessey O. A. et al., J. Biol. Chem. 164, 321-329, 1946). To investigate the progress of calcification, 0.5 μCi of ^45Ca was added at suitable intervals and its incorporation into the chondrocytes after 24 h, as well as the Ca level on the 28th day of the cultivation were measured.

Experiment [5] concerns chondrocytes. As to the kind of experiment: Calcification of chondrocytes (45Ca incorporation, Ca level) in centrifugal tube culture. The format is cell-based, rabbit.
From the text: as §2
As in Example 1, chondrocytes were cultured in a centrifugal tube. On the 8th day of the cultivation, 10^−7 M of PTHrP was added and the cultivation was continued for a period of up to 28 days. […] To investigate the progress of calcification, 0.5 μCi of ^45Ca was added at suitable intervals and its incorporation into the chondrocytes after 24 h, as well as the Ca level on the 28th day of the cultivation were measured.

For experiment [6], the system named is mRNA of type II collagen. As to the kind of experiment: Expression of mRNA of type II collagen in cultured chondrocytes (hybridization with 32P cDNA probe). Conditions: 10^−8 or 10^−7 M PTHrP, last 6 days of 30-day cultivation; FIG. 9. In kind it is cell-based, rabbit. Here is the method: (§3) As in Example 1, grown chondrocytes were separated from the subchondral bone to bone transition area of rabbits 4 weeks old from birth by the method of Shimomura et al. (Shimomura, Y. et a., Calcif. Tissue Res. 19, 179-187, 1975). The separated chondrocytes were suspended in an Eagle's minimum essential medium (MEM) containing 10% fetal bovine serum and 50 μg/mL of ascorbic acid and seeded on a 3.5-cm Petri dish coated with type I collagen, each well containing 5,000 cells. Following 30-day cultivation, 10^−8 and 10^−7 M of PTHrP was brought into action for the last 6 days. RNA was prepared from the cultured cells by the CsTFA method (Smale and Sasse, Anal. Biochem. 203, 352-356. 1992), separated by electrophoresis and thereafter transferred onto a membrane. The membrane onto which the RNA had been transferred was hybridized with a ^32P labelled cDNA probe for type X and II collagens.

Experiment [7] concerns mRNA of type X collagen. The experiment is described as follows: Expression of mRNA of type X collagen in cultured chondrocytes (hybridization with 32P cDNA probe). To be noted: 10^−8 and 10^−7 M PTHrP, last 6 days of 30-day cultivation; FIG. 9. The format is cell-based, rabbit. As for the experimental part: as §3

In the case of “PTHrP: human 1-34PTHrP purchased from the Peptide Institute, Inc.; partial peptide of PTHrP, 34 amino acids from the N terminus”, the “binding of 125I labelled PTHrP to the receptors” value in experiment [1] is listed as “completely prevented”. Besides, in experiment [2] (10^−6 M PTHrP), the “matrix synthesizing capability relative to control (incorporation of 35S-sulfuric acid into proteoglycans)” value was “about 3 times”. Moreover, in experiment [2] (10^−10 to 10^−6 M PTHrP, dose response), the “incorporation of 35S-sulfuric acid into proteoglycans” value was “accelerated the incorporation of ^35S-sulfuric acid into proteoglycans in a dose-dependent manner”. Further, in experiment [3], the “DNA content of the chondrocytes” value is given as “not influenced at all”. The “ALP activity of the chondrocytes” value in experiment [4] (10^−7 M PTHrP added on 8th day, up to 28 days, PTHrP Treated Group, FIG. 5) is recorded as “suppressed”. The ALP activity result in experiment [4] (10^−8 M PTHrP, FIG. 6) is “suppressed almost completely”. In addition, the “ALP activity after PTHrP was eliminated from the culture solution” value in experiment [4] (PTHrP removed on 21st day of cultivation, PTHrP Free Group, FIG. 5) is on record as “restored to the level of the control group”. Moreover, the “concentration at which PTHrP started to suppress the ALP activity” value in experiment [4] (dose response, 21st day, FIG. 6) is reported as “above 10^−9 M”. For the same substance, the “incorporation of 45Ca into the chondrocytes” value in experiment [5] (10^−7 M PTHrP, PTHrP Treated Group, FIG. 7) is “suppressed”. Also, the “effect on 45Ca incorporation when PTHrP was removed” value in experiment [5] (PTHrP Free Group, FIG. 7) is listed as “soon disappeared”. The calcification of chondrocytes entry in experiment [5] (concentrations higher than 10^−8 M PTHrP, FIG. 8) is “completely suppressed”. For the same substance, in experiment [6], the “expression of the mRNA of type II collagen” value is given as “no effects”. For the same substance, the “expression of the mRNA of type X collagen” value in experiment [7] is reported as “significantly inhibited”.

The values above are taken from patent US6787518B1, “Therapeutics of osteoarthritis and inflammatory joint disease” (priority 1995, dated 2004).
